According to BindingDB's records for doi:10.1016/j.bmcl.2005.01.080 (University of Minnesota, 2005):

Biological target: Eukaryotic translation initiation factor 4E (Homo sapiens, UniProt P06730)
Assay: Inhibitory concentration against 7-methyl-GTP binding to eukaryotic translation initiation factor 4E

Sequence of Eukaryotic translation initiation factor 4E (P06730 whole entry): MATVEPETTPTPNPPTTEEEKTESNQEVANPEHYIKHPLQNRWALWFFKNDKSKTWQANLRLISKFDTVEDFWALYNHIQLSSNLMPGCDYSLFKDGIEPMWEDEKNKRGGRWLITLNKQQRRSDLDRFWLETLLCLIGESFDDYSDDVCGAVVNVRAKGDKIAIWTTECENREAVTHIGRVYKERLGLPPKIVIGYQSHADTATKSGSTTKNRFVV

| IC50 [µM] | SMILES |
| --- | --- |
| > 400 | CN1CN(C2O[C@H](CO)[C@@H](O)[C@H]2O)C2=NC=NC(O)C21 (some centres not stated) |
| > 400 | CN1CN(C2O[C@H](CO)[C@@H](O)[C@H]2O)c2nc(N)[nH]c(=S)c21 (some centres not stated) |
